In patent publication US20020026052A1, “3-cyanoquinolines, 3-cyano-1,6-naphthyridines, and 3-cyano-1,7-naphthyridines as protein kinase inhibitors” (American Home Products Corporation, priority 2000, published 2002) one finds IC50, GI50 and melting point data, which are given here for 26 molecules.

Data set [1] addresses Src (Homo sapiens, UniProt P12931). The data set can be described thus: c-Src Kinase Assay (ELISA). Type of data set: biochemical. The protocol: Inhibitors of Src (partially purified preparation purchased from Upstate Biotechnologies) tyrosine kinase activity are analyzed in an ELISA format. […] Horseradish Peroxidase (HRP)-conjugated anti-phosphotyrosine is used to detect phosphorylated peptide via a color reaction. Conditions recommended by the manufacturer are employed.
Reaction conditions: Five microliter aliquots of each compound prepared fresh at the time of the assay are added as a solution in lOmM HEPES pH 7.5, 10% DMSO to the reaction well. Thirty-five microliters of reaction mix containing Src, buffer and peptide/bovine serum albumin mix are added to the compound wells and incubated at 30° C. for 10 minutes (reaction buffer: 5 OmM TrisHCI pH 7.5, l0 mM MgCl2, O.lmM EGTA, 0.5 mM Na3 VO4)-1H-. The reaction is started by addition of 10 microliters of ATP, incubated at 30° C. for 1 hour, and stopped by addition of 20 microliters of 0.5 M EDTA. The reaction mixture with the phosphorylated peptide is then transferred to a streptavidin-coated microtiter plate (provided in the kit) and allowed to bind for 20 minutes. IUnbound peptide and reaction mixture is decanted and the plate is washed with PBS six times. HRP-conjugated phosphotyrosine antibody supplied in the kit is incubated with the plate for one hour, then decanted. The plate is again washed with PBS six times.
Activity is determined as % inhibition as calculated by the formula: (1−Abs/Abs(max) ) ×100=% inhibition.
On the technique in general: ELISA stands for enzyme-linked immunosorbent assay.

Data set [2] deals with Rat2 fibroblasts stably transformed with v-Src/Hu c-Src fusion gene (Homo sapiens, UniProt P12931, cells depend on it, form not given). The data set can be described thus: Anchorage Independent Src-transformed Fibroblast Proliferation Assay. It counts as cell-based, Rat. To be noted: suspension growth, MTS reagent on Day 5; read-out: anch-indep src-tx fib IC50. The protocol:
Anchorage Independent Src-transformed Fibroblast Proliferation Assay
Rat2 fibroblasts stably transformed with a plasmid containing a CMV promotor controlled v-Src/Hu c-Src fusion gene in which the catalytic domain of human c-Src was inserted in place of the v-Src catalytic domain in the v-Src gene are used for the measurement of src dependent suspension growth. […] Multiple entries for a given compound indicate that it was tested multiple times.
In general terms: Formazan colour is commonly taken as a measure of viable cells.

“And” between values parts separate entries of the source, which are not always exact repeats. Equal values may be shown once.

For “4-(2,4-Dichloro-5-methoxyanilino)-7-(3-formyl)-3-quinolinecarbonitrile [Example 112]”, the IC50 – broadly, the concentration that gives 50% inhibition – in data set [1] was 36 nM. In data set [2], the GI50 worked out at 7300 nM.

As for “4-[(2,4-Dichloro-5-methoxyphenyl) amino]-7-[4-(4-morpholinyl) phenyl]-3-quinolinecarbonitrile [Example 128]”, in data set [1], the IC50 came out at 3.2 nM. Besides, the GI50 in data set [2] turned out to be 640 nM.

`COc1cc(Nc2c(C#N)cnc3cc(/C=C/c4ccccn4)ccc23)c(Cl)cc1Cl` [Example 3, 4-(2,4-Dichloro-S-methoxyanilino)-7-[(E)-2-(2-pyrdinyl)ethenyl]-3-quinoline-carbonitrile]: it took 11 nM to reach half-maximal inhibition in data set [1] (IC50).

Turning to `COc1cc(Nc2c(C#N)cnc3cc(-c4ccc(C=O)s4)ccc23)c(Cl)cc1Cl` [Example 52, 4-(2,4-dichloro-5-methoxyanilino)-7-(5-formyl-2-thienyl)-3-quinolinecarbonitrile], the melting point (commonly the temperature, or range, at which the solid turns liquid) was > 300 °C (dec.). The molecule further had an IC50 in data set [1] of 11 nM.

Consider `COc1cc(Nc2c(C#N)cnc3cc(-n4cccc4)c(OC)cc23)c(Cl)cc1Cl` [Example 59, 4-(2,4-Dichloro-5-methoxyanilino)-6-methoxy-7-(1H-pyrrol-1-yl)-3-quinolinecarbonitrile], for which the melting point fell in the range of 229 to 230 °C. In addition, the IC50 in data set [1] is 12 nM and 15 nM.

On to `COc1cc(Nc2c(C#N)cnc3cc(-c4ccc(CN5CCC(O)CC5)s4)ccc23)c(Cl)cc1Cl` [Example 89, 4-(2,4-dichloro-5-methoxyanilino)-7-{5-[(4-hydroxy-1-piperidinyl)methyl]-2-thienyl}-3-quinolinecarbonitrile], for which, in data set [1], the 50% inhibitory concentration (IC50) was 0.52 nM and 0.84 nM. In addition, the GI50 in data set [2] is 90 nM.

`COc1cc(Nc2c(C#N)cnc3cc(-c4ccc(-c5nnn[nH]5)cc4)ccc23)c(Cl)cc1Cl` [Example 105] gave an IC50 in data set [1] of 10 nM. For the same molecule, the GI50 in data set [2] was > 10000 nM and 5900 nM.

As for `COc1cc(Nc2c(C#N)cnc3cc(-c4ccc(CO)n4C)ccc23)c(Cl)cc1Cl` [Example 162, 4-(2,4-Dichloro-5-methoxyanilino)-7-[5-(hydroxymethyl)-1-methyl-lH-pyrrol-2-yl]-3-quinolinecarbonitrile], the melting point was 175 °C (dec.). Also, the GI50 in data set [2] is greater than 10000 nM.

For `COc1cc(Nc2c(C#N)cnc3cc(-c4sccc4C=O)ccc23)c(Cl)cc1Cl` [Example 163, 4-(2,4-Dichloro-5-methoxyanilino)-7-(3-formyl-2-thienyl)-3-quinolinecarbonitrile], the melting point lay within 231 to 232 °C. For the same molecule, the GI50 in data set [2] is greater than 10000 nM.

Take `COc1cc(Nc2c(C#N)cnc3cc(-c4cccn4C(=O)OC(C)(C)C)ccc23)c(Cl)cc1Cl` [Example 164, tert-butyl 2-[3-cyano-4-(2,4-dichloro-5-methoxyanilino)-7-quinolinyl]pyrrole-1-carboxylate]: the melting point is 135 °C (dec.). The GI50 in data set [2] was greater than 10000 nM.

In the case of `COc1cc(Nc2c(C#N)cnc3cc(C#CCN4CCOCC4)c(OC)cc23)c(Cl)cc1Cl` [Example 166, 4-(2,4-Dichloro-5-methoxyanilino)-6-methoxy-7-[3-(4-morpholinyl)-1-propynyl]-3-quinolinecarbonitrile], the melting point was in the range of 105 to 108 °C. Besides, in data set [2], the GI50 turned out to be 720 nM.

Take `COc1cc(Nc2c(C#N)cnc3cc(-c4csc(CN5CCOCC5)c4)ccc23)c(C)cc1Cl` [Example 167, 4-(4-Chloro-5-methoxy-2-methylanilino)-7-[5-(4-morpholinylmethyl)-3-thienyl]-3-quinolinecarbonitrile]: the melting point is > 108 °C (dec.). Further, the GI50 in data set [2] came out at 900 nM.

The molecule `COc1cc(Nc2c(C#N)cnc3cc(-c4cccc(N)c4)ccc23)c(Cl)cc1Cl` [Example 174, 7-(3-Aminophenyl)-4-[(2,4-dichloro-5-methoxyphenyl)amino]-3-quinolinecarbonitrile] displayed a melting point of 221 to 222 °C. Moreover, the GI50 in data set [2] is 5600 nM.

In the case of `COC(=O)C1CCN(Cc2ccc(-c3ccc4c(Nc5cc(OC)c(Cl)cc5Cl)c(C#N)cnc4c3)nc2)CC1` [Example 176, 1-{6-[3-Cyano-4-(2,4-dichloro-5-methoxyphenylamino)-quinolin-7-yl]-pyridin-3-ylmethyl}-piperidine-4-carboxylic acid methyl ester], the melting point lay within 186 to 188 °C. For the same molecule, in data set [2], the GI50 was 90 nM.

For `CCN1CCN(c2ccc(-c3ccc4c(Nc5cc(OC)c(Cl)cc5Cl)c(C#N)cnc4c3)nc2)CC1` [Example 179, 4-[(2,4-Dichloro-5-methoxyphenyl)amino]-7-[5-(4-ethyl-1-piperazinyl)-2-pyridinyl]-3-quinolinecarbonitrile], the melting point was in the range of 232 to 234 °C. For the same molecule, the GI50 in data set [2] stood at 270 nM.

For `COc1cc(Nc2c(C#N)cnc3cc(-c4cnc(N5CCOCC5)nc4)ccc23)c(Cl)cc1Cl` [Example 186, 4-(2,4-Dichloro-5-methoxyanilino)-7-[2-(4-morpholinyl)-5-pyrimidinyl]-3-quinolinecarbonitrile], the melting point is greater than 260 °C. Also, the GI50 in data set [2] is greater than 10000 nM.

With `COc1cc(Nc2c(C#N)cnc3cc(-c4ccc(Oc5ccc(CN6CCOCC6)cc5)nc4)ccc23)c(Cl)cc1Cl` [Example 193, 4-(2,4-Dichloro-5-methoxyanilino)-7-{6-[4-(4-morpholinylmethyl)phenoxy]-3-pyridinyl)-3-quinolinecarbonitrile], the melting point was in the range of 176 to 178 °C. In data set [2], the GI50 was greater than 10000 nM.

As for `COc1ccc(-c2ccc3c(Nc4cc(OC)c(Cl)cc4Cl)c(C#N)cnc3c2)cc1` [Example 194, 4-(2,4-Dichloro-5-methoxyanilino)-7-(4-methoxyphenyl)-3-quinolinecarbonitrile], the melting point was in the range of 210 to 212 °C. Also, the GI50 in data set [2] was greater than 10000 nM.

As to `COc1cc(Nc2c(C#N)cnc3cc(-c4cnc(C=O)n4C)c(OC)cc23)c(Cl)cc1Cl` [Example 228, 4-(2,4-Dichloro-5-methoxyanilino)-7-(2-formyl-1-methyl-1H-imidazol-5-yl)-6-methoxy-3-quinolinecarbonitrile], the melting point fell in the range of 141 to 144 °C. Also, in data set [2], the GI50 was greater than 10000 nM.

`COc1cc(Nc2c(C#N)cnc3cc(-c4ccc(CNCCc5ccccn5)cc4)ccc23)c(Cl)cc1Cl` [Example 229, 4-(2,4-Dichloro-5-methoxyanilino)-7-[4-({[2-(2-pyridinyl)ethyl]amino}-methyl)phenyl]-3-quinolinecarbonitrile]: the melting point is 256 to 258 °C. Also, the GI50 in data set [2] was found to be 450 nM.

Turning to `COC(=O)C1CCN(Cc2ccc(-c3ccc4c(Nc5cc(OC)c(Cl)cc5Cl)c(C#N)cnc4c3)cc2)CC1` [Example 231, Methyl 1-{4-[3-cyano-4-(2,4-dichloro-5-methoxyanilino)-7-quinolinyl]benzyl}-4-piperidinecarboxylate], the melting point was in the range of 278 to 280 °C. Besides, the GI50 in data set [2] is 390 nM.

In turn, `COc1cc(Nc2c(C#N)cnc3cc(-c4cnc(CN5CCOCC5)n4C)c(OC)cc23)c(Cl)cc1Cl` [Example 232, 4-(2,4-Dichloro-5-methoxyanilino)-6-methoxy-7-[1-methyl-2-(4-morpholinylmethyl)-1H-imidazol-5-yl]-3-quinolinecarbonitrile] gave a melting point of 248 to 252 °C. The GI50 in data set [2] came out at 3500 nM.

`COc1cc(Nc2c(C#N)cnc3cc(-c4ccc(CN5CCOCC5)cc4)ccc23)c(Cl)cc1C` [Example 234, 4-(2-Chloro-5-methoxy4-methylanilino)-7-[4-(4-morpholinylmethyl)phenyl]3-quinolinecarbonitrile] registered a melting point of 140 to 143 °C. Further, in data set [2], the GI50 was 720 nM.

`COc1cc(Nc2c(C#N)cnc3cc(-c4ccc(CN5CCOCC5)cc4)ccc23)c(Cl)cc1F` [Example 235, 4-(2-Chloro-4-fluoro-5-methoxyanilino)-7-[4-(4-morpholinylmethyl)phenyl]-3-quinolinecarbonitrile] gave a melting point of 174 to 178 °C. Besides, the GI50 in data set [2] is 790 nM.

Consider `COc1ccc(Cl)c(Nc2c(C#N)cnc3cc(-c4ccc(CN5CCOCC5)cc4)ccc23)c1` [Example 236, 4-(2-Chloro-5-methoxyanilino)-7-[4-(4-morpholinylmethyl)phenyl]-3-quinolinecarbonitrile], for which the melting point was 160 to 163 °C. In data set [2], the GI50 was 570 nM.

`COc1cc(Nc2c(C#N)cnc3cc(-c4ccc(CN5CCC(C(=O)O)CC5)cc4)ccc23)c(Cl)cc1Cl` [Example 237, 1-{4-[3-Cyano-4-(2,4-dichloro-5-methoxyanilino)-7-quinolinyl]benzyl}-4-piperidinecarboxylic acid] yielded a melting point of 248 °C. In data set [2], the GI50 is 490 nM and 520 nM and 410 nM.
